Consider 18 compounds from patent US12202835B2, “Substituted aromatic ring-linked dioxinoquinazolines and dioxinoquinolines as kinase inhibitors” (BEIJING SCITECH-MQ PHARMACEUTICALS LIMITED, priority 2018, dated 2025).

Broadly, the IC50 is the concentration at which inhibition is half-maximal.

One assay addresses TRKA kinase (Homo sapiens (Human), UniProt P04629). Briefly: Assay of small molecular compounds for inhibiting the activity of TRKA kinase (LANCE TR-FRET). The class given is biochemical. The essentials:
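LANCE TR-FRET with ULight-TK peptide; compounds pre-incubated 5 min with TRKA (2× solution 2 nM), then substrate/ATP added (4× mix: 400 nM peptide, 40 μM ATP). Reaction 60 min at room temperature in dark, 1% DMSO final; stopped, detection developed 60 min, signal read.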
Background: Time-resolved FRET reads energy transfer from a long-lived donor to a nearby acceptor.

In a further assay the target is VEGFR-2 kinase (Homo sapiens (Human), UniProt P35968). Briefly: Assay of small molecular compounds for inhibiting the activity of VEGFR-2 kinase (LANCE TR-FRET). The conditions noted are these: read-out: VEGFR2 IC50. In kind it is biochemical. The essentials: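 LANCE TR-FRET with human VEGFR-2 (2× stock 0.5 nM) preincubated 30 min with compound (final 2500 to 0.042 nM, 11-point 3-fold), then ULight-JAK-1 (Tyr1023) peptide/ATP added (4× stocks 200 nM/40 μM). Reaction 60 min room temperature, 4% DMSO; IC50 from inhibition-rate curve.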
Chain of VEGFR-2 kinase (P35968 20-1356): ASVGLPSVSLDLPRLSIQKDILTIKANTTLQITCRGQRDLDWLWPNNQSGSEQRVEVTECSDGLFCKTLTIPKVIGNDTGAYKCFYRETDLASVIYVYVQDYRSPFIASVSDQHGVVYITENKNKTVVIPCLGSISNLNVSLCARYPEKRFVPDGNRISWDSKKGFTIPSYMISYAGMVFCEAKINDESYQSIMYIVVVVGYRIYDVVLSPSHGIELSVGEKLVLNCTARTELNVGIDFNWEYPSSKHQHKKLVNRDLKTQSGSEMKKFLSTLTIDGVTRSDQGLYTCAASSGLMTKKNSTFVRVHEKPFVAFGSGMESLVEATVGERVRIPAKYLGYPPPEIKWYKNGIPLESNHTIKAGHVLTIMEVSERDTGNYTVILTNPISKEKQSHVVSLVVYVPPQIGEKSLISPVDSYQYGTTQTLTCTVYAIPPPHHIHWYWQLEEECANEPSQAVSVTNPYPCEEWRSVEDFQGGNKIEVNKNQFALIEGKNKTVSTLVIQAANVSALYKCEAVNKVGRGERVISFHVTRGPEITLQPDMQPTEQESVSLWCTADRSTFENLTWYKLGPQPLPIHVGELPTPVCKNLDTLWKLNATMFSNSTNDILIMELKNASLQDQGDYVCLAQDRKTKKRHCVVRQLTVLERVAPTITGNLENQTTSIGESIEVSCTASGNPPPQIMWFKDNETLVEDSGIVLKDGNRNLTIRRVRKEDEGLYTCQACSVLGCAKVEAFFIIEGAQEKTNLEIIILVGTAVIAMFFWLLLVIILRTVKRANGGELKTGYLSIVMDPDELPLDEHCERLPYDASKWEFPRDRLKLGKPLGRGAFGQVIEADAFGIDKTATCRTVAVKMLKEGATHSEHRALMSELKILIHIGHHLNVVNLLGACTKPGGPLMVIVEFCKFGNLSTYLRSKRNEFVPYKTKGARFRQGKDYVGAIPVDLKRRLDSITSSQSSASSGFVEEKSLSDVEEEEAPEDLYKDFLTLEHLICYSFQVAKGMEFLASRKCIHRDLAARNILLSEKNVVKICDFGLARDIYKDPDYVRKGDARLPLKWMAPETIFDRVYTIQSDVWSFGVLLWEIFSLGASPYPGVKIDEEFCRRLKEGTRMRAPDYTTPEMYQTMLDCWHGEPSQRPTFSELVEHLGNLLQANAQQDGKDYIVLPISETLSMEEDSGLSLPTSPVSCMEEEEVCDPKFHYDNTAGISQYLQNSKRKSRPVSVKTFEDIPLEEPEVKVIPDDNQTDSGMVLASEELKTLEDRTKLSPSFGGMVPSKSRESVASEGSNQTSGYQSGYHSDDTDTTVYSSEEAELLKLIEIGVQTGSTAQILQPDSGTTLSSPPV

Another assay has as its system Ba/F3-AXL cells. Briefly: Assay for inhibiting the proliferation of Ba/F3-AXL cells (CCK-8). Conditions: 72 hours of incubation, medium with 100 ng/mL hGas6, CCK-8. The class given is cell-based. The method, then: The values were then imported into Graphpad Prism 5 software for curve fitting, and IC50 was calculated.

Chain of TRKA kinase (P04629 33-796): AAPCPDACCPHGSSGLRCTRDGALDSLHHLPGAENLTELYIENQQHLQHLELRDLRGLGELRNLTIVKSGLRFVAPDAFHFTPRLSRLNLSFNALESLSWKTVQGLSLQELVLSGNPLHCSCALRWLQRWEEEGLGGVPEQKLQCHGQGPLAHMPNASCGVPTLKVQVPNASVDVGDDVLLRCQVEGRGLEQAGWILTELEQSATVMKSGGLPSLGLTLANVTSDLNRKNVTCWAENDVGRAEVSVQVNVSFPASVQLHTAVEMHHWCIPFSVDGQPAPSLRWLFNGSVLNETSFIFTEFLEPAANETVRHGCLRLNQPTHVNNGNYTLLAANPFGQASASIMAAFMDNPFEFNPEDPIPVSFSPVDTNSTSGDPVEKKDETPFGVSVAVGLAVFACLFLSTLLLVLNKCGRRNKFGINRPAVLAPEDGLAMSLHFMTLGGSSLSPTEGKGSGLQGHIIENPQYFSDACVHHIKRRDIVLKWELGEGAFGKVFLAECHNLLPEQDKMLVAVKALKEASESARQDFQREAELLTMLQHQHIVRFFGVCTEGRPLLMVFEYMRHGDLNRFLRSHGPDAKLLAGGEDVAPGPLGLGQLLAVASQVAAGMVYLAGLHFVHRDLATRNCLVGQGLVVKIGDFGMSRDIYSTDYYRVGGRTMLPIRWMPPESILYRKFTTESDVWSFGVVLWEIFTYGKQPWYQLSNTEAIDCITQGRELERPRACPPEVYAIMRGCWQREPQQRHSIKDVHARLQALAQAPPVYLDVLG

Turning to `CCOc1ccn(-c2ccc(F)cc2)c(=O)c1C(=O)Nc1cc(F)c(Oc2ccnc3cc(OC)c4c(c23)OCCO4)cc1Cl` [Example 115, N-(2-chloro-5-fluoro-4-((5-methoxy-2,3-dihydro-[1,4]dioxino[2,3-f]quinolin-10-yl)oxy)phenyl)-4-ethoxy-2-oxo-1-(4-fluorophenyl)-1,2-dihydropyridin-3-carboxamide], the IC50 is below 50 nM against TRKA kinase, 500 to 5000 nM at VEGFR-2 kinase and below 50 nM with Ba/F3-AXL cells.
Turning to `CCOc1ccn(-c2ccc(F)cc2)c(=O)c1C(=O)Nc1ccc(Oc2ccnc3cc(OC)c4c(c23)OCCO4)cc1Cl` [Example 126, N-(2-chloro-4-((5-methoxy-2,3-dihydro-[1,4]dioxino[2,3-f]quinolin-10-yl)oxy)phenyl)-1-(4-fluorophenyl)-4-ethoxy-2-oxo-1,2-dihydropyridine-3-carboxamide], the IC50 against TRKA kinase was below 50 nM; at VEGFR-2 kinase, 50 to 500 nM; in the assay on Ba/F3-AXL cells it was below 50 nM.
With `COCCOc1cc2nccc(Oc3ccc(NC(=O)c4c(OC)ccn(-c5ccc(F)cc5)c4=O)cc3F)c2c2c1OCCO2` [Example 35, N-(3-fluoro-4-((5-(2-methoxyethoxy)-2,3-dihydro-[1,4]dioxino[2,3-f]quinolin-10-yl)oxy)phenyl)-1-(4-fluorophenyl)-4-methoxy-2-oxo-1,2-dihydropyridine-3-carboxamide], the IC50 against TRKA kinase was below 50 nM; on VEGFR-2 kinase it was at most 50 nM; with Ba/F3-AXL cells, below 50 nM.
Consider `CCOc1ccn(Cc2ccccc2)c(=O)c1C(=O)Nc1ccc(Oc2ccnc3cc(OC)c4c(c23)OCCO4)c(F)c1` [Example 117, N-(3-fluoro-4-((5-methoxy-2,3-dihydro-[1,4]dioxino[2,3-f]quinolin-10-yl)oxy)phenyl)-2-oxo-4-ethoxy-1-benzyl-1,2-dihydropyridin-3-carboxamide], for which the values for the IC50 at TRKA kinase, at VEGFR-2 kinase and in the assay with Ba/F3-AXL cells were 50 to 500 nM, 500 to 5000 nM and below 50 nM, respectively.
Turning to `Cn1cc(C(=O)Nc2ccc(Oc3ccnc4cc(OCC(C)(C)O)c5c(c34)OCCO5)c(F)c2)c(=O)n(-c2ccc(F)cc2)c1=O` [Example 121, N-(3-fluoro-4-((5-(2-hydroxy-2-methylpropoxy)-2,3-dihydro-[1,4]dioxino[2,3-f]quinolin-10-yl)oxy)phenyl)-3-(4-fluorophenyl)-1-methyl-2,4-dioxo-1,2,3,4-tetrahydropyrimidine-5-carboxamide], the results for the IC50 at TRKA kinase, on VEGFR-2 kinase and in the assay with Ba/F3-AXL cells were 50 to 500 nM, 500 to 5000 nM and below 50 nM, respectively.
As for `O=C(Nc1ccc(Oc2ccnc3cc(OCCCN4CCCCC4)c4c(c23)OCCO4)c(F)c1)c1cccn(-c2ccc(F)cc2)c1=O` [Example 31, N-(3-fluoro-4-((5-(3-(piperidin-1-yl)propoxy)-2,3-dihydro-[1,4]dioxino[2,3-f]quinolin-10-yl)oxy)phenyl)-1-(4-fluorophenyl)-2-oxo-1,2-dihydropyridine-3-carboxamide], the IC50 was below 50 nM on TRKA kinase, at most 50 nM at VEGFR-2 kinase and below 50 nM in the assay with Ba/F3-AXL cells.
Consider `CC(C)n1cc(C(=O)Nc2ccc(Oc3ccnc4cc(OCCCN5CCCCC5)c5c(c34)OCCO5)c(F)c2)c(=O)n(-c2ccc(F)cc2)c1=O` [Example 40, N-(3-fluoro-4-((5-(3-(piperidin-1-yl)propoxy)-2,3-dihydro-[1,4]dioxino[2,3-f]quinolin-10-yl)oxy)phenyl)-3-(4-fluorophenyl)-1-isopropyl-2,4-dioxo-1,2,3,4-tetrahydropyrimidine-5-carboxamide], for which the figures for the IC50 on TRKA kinase, at VEGFR-2 kinase and with Ba/F3-AXL cells were below 50 nM, 50 to 500 nM and below 50 nM, respectively.
For `CCOc1ccn(-c2ccc(F)cc2)c(=O)c1C(=O)Nc1ccc(Oc2ccnc3cc(OCC4(N)CC4)c4c(c23)OCCO4)c(F)c1` [Example 105, N-(4-((5-((1-aminocyclopropyl)methoxy)-2,3-dihydro-[1,4]dioxino[2,3-f]quinolin-10-yl)oxy)-3-fluorophenyl)-4-ethoxy-1-(4-fluorophenyl)-2-oxo-1,2-dihydropyridine-3-carboxamide], the figures for the IC50 at TRKA kinase, at VEGFR-2 kinase and with Ba/F3-AXL cells were below 50 nM, 50 to 500 nM and below 50 nM, respectively.
As to `COc1cc2nccc(Oc3ccc(NC(=O)c4cn(CCF)c(=O)n(-c5ccc(F)cc5)c4=O)cc3F)c2c2c1OCCO2` [Example 101, N-(3-fluoro-4-((5-methoxy-2,3-dihydro-[1,4]dioxino[2,3-f]quinolin-10-yl)oxy)phenyl)-3-(4-fluorophenyl)-1-(2-fluoroethyl)-2,4-dioxo-1,2,3,4-tetrahydropyrimidine-5-carboxamide], the IC50 was 50 to 500 nM on TRKA kinase, 500 to 5000 nM at VEGFR-2 kinase and below 50 nM in the assay with Ba/F3-AXL cells.
For `CC(C)n1cc(C(=O)Nc2ccc(Oc3ccnc4cc(OCC5(N)CC5)c5c(c34)OCCO5)c(F)c2)c(=O)n(-c2ccc(F)cc2)c1=O` [Example 106, N-(3-fluoro-4-((5-((1-aminocyclopropyl)methoxy)-2,3-dihydro-[1,4]dioxino[2,3-f]quinolin-1 0-yl)oxy)phenyl)-3-(4-fluorophenyl)-1-isopropyl-2,4-dioxo-1,2,3,4-tetrahydropyrimidine-5-carboxamide], the IC50 at TRKA kinase was 50 to 500 nM; on VEGFR-2 kinase, above 5000 nM; with Ba/F3-AXL cells, below 50 nM.
Turning to `COc1ccn(-c2ccc(F)cc2)c(=O)c1C(=O)Nc1ccc(Oc2ccnc3cc(OCCCN4CCCCC4)c4c(c23)OCCO4)c(F)c1` [Example 32, N-(3-fluoro-4-((5-(3-(piperidin-1-yl)propoxy)-2,3-dihydro-[1,4]dioxino[2,3-f]quinolin-10-yl)oxy)phenyl)-1-(4-fluorophenyl)-4-methoxy-2-oxo-1,2-dihydropyridine-3-carboxamide], the IC50 was below 50 nM at TRKA kinase, at most 50 nM at VEGFR-2 kinase and below 50 nM in the assay on Ba/F3-AXL cells.
`COc1ccn(-c2ccc(F)cc2)c(=O)c1C(=O)Nc1ccc(Oc2ccnc3cc(OCCCN4CCOCC4)c4c(c23)OCCO4)c(F)c1` [Example 21, N-(3-fluoro-4-((5-(3-morpholinopropoxy)-2,3-dihydro-[1,4]dioxino[2,3-f]quinolin-10-yl)oxy)phenyl)-1-(4-fluorophenyl)-4-methoxy-2-oxo-1,2-dihydropyridine-3-carboxamide]: the half-inhibitory concentration (IC50) at TRKA kinase was below 50 nM; at VEGFR-2 kinase it was at most 50 nM; in the assay on Ba/F3-AXL cells, below 50 nM.
Regarding `CCOc1ccn(-c2ccc(F)cc2)c(=O)c1C(=O)Nc1ccc(Oc2ccnc3cc(OCC(C)(C)O)c4c(c23)OCCO4)c(F)c1` [Example 120, N-(3-fluoro-4-((5-(2-hydroxy-2-methylpropoxy)-2,3-dihydro-[1,4]dioxino[2,3-f]quinolin-10-yl)oxy)phenyl)-4-ethoxy-1-(4-fluorophenyl)-2-oxo-1,2-dihydropyridine-3-carboxamide], the figures for the IC50 on TRKA kinase, on VEGFR-2 kinase and with Ba/F3-AXL cells were below 50 nM, 50 to 500 nM and below 50 nM, respectively.
Turning to `COCCN(C)CCCOc1cc2nccc(Oc3ccc(NC(=O)c4cn(C(C)C)c(=O)n(-c5ccc(F)cc5)c4=O)cc3F)c2c2c1OCCO2` [Example 95, N-(3-fluoro-4-((5-(3-((2-methoxyethyl)(methyl)amino)propoxy)-2,3-dihydro-[1,4]dioxino[2,3-f]quinolin-10-yl)oxy)phenyl)-3-(4-fluorophenyl)-1-isopropyl-2,4-dioxo-1,2,3,4-tetrahydropyrimidine-5-carboxamide], the IC50 on TRKA kinase is below 50 nM; on VEGFR-2 kinase it was 500 to 5000 nM; in the assay on Ba/F3-AXL cells it was below 50 nM.
`CCn1cc(C(=O)Nc2ccc(Oc3ccnc4cc(OCCCN5CCOCC5)c5c(c34)OCCO5)c(F)c2)c(=O)n(-c2ccc(F)cc2)c1=O` [Example 38, N-(3-fluoro-4-((5-(3-morpholinopropoxy)-2,3-dihydro-[1,4]dioxino[2,3-f]quinolin-10-yl)oxy)phenyl)-3-(4-fluorophenyl)-1-ethyl-2,4-dioxo-1,2,3,4-tetrahydropyrimidine-5-carboxamide]: the IC50 was below 50 nM against TRKA kinase, 50 to 500 nM at VEGFR-2 kinase and below 50 nM with Ba/F3-AXL cells.
On to `COc1cc2nccc(Oc3ccc(NC(=O)c4cn(CCCO)c(=O)n(-c5ccc(F)cc5)c4=O)cc3F)c2c2c1OCCO2` [Example 99, N-(3-fluoro-4-((5-methoxy-2,3-dihydro-[1,4]dioxino[2,3-f]quinolin-10-yl)oxy)phenyl)-3-(4-fluorophenyl)-1-(3-hydroxypropyl)-2,4-dioxo-1,2,3,4-tetrahydropyrimidine-5-carboxamide], for which the values for the IC50 against TRKA kinase, at VEGFR-2 kinase and in the assay on Ba/F3-AXL cells were 50 to 500 nM, 500 to 5000 nM and below 50 nM, respectively.
Regarding `CCOc1ccn(-c2ccc(F)cc2)c(=O)c1C(=O)Nc1ccc(Oc2ccnc3cc(OCC(C)(C)O)c4c(c23)OCCO4)cc1Cl` [Example 142, N-(2-chloro-4-((5-(2-hydroxy-2-methylpropoxy)-2,3-dihydro-[1,4]dioxino[2,3-f]quinolin-10-yl)oxy)phenyl)-1-(4-fluorophenyl)-4-ethoxy-2-oxo-1,2-dihydropyridine-3-carboxamide], the IC50 was below 50 nM on TRKA kinase, 50 to 500 nM on VEGFR-2 kinase and below 50 nM in the assay on Ba/F3-AXL cells.
On to `CCOc1ccn(-c2ccc(C)cc2)c(=O)c1C(=O)Nc1ccc(Oc2ccnc3cc(OC)c4c(c23)OCCO4)c(F)c1` [Example 112, N-(3-fluoro-4-((5-methoxy-2,3-dihydro-[1,4]dioxino[2,3-f]quinolin-10-yl)oxy)phenyl)-2-oxo-4-ethoxy-1-(4-methylphenyl)-1,2-dihydropyridin-3-carboxamide], for which the IC50 was below 50 nM against TRKA kinase, 50 to 500 nM at VEGFR-2 kinase and below 50 nM in the assay with Ba/F3-AXL cells.
